Test results from patent US20020110523A1, “Methods for screening or monitoring the risk of cardiovascular disease relating to sex steroid compound or composition intake and methods for screening sex steroid compound” (priority 1996, published 2002).
Marks after values point to notes of the source that are not given here.

Legend:
[1] = review of human studies; cited from earlier work
[2] = among third-generation OCs; cited from earlier work
C-reactive protein (CRP) = assay: CRP in postmenopausal women with type 2 diabetes on estrogen replacement therapy, randomized placebo-controlled trial (Example III); assay type: in vivo, human
[3] = system: SHBG, cortisol binding protein (CBP), ceruloplasmin and HDL-cholesterol; conditions: cited from earlier work; for estrogenic effect: in man; for androgenic activity: on the basis of a change in SHBG and HDL cholesterol levels
ceruloplasmin = conditions: FIG. 1 of Ruokonen and Kaar; cited from earlier work

| SMILES | androgenicity and antiestrogenic potential [1] | estrogenic effect [3] | androgenic activity [3] | other results |
| --- | --- | --- | --- | --- |
| C#C[C@]1(OC(C)=O)CC[C@H]2[C@@H]3CCC4=CC(=NO)CC[C@@H]4[C@H]3CC[C@@]21CC (mixture of isomers) [norgestimate] | minimal amounts of androgenicity and antiestrogenic potential |  |  | androgenic profile in vitro [2]: least androgenic profile |
| C[C@]12CC[C@@H]3c4ccc(O)cc4CC[C@H]3[C@@H]1CC[C@@H]2O [17 beta estradiol] |  |  |  | effect on CRP (C-reactive protein (CRP); 2 mg/d orally for six weeks): induced an increase in CRP; CRP-values, Median (C-reactive protein (CRP); 6 weeks, 2 mg/d orally, p = 0.0027 compared to pretreatment): 6.70#; CRP-values, Median (C-reactive protein (CRP); Pretreatment (baseline of the treatment group), postmenopausal women with type 2 diabetes): 4.13 |
| C#C[C@]1(O)CC[C@H]2[C@@H]3CCC4=CCCC[C@@H]4[C@H]3C(=C)C[C@@]21CC [desogestrel] | minimal amounts of androgenicity and antiestrogenic potential | no estrogenic effect | androgenic activity | androgenicity compared among the three compounds ([3]; desogestrel, levonorgestrel and lynestrenol compared): least androgenic; effect on ceruloplasmin concentration (ceruloplasmin): does not induce this effect or does so to an insufficient degree |
| C#C[C@]1(O)C=C[C@H]2[C@@H]3CCC4=CC(=O)CC[C@@H]4[C@H]3CC[C@@]21CC [gestodene] | minimal amounts of androgenicity and antiestrogenic potential |  |  |  |
| C#C[C@]1(O)CC[C@H]2[C@@H]3CCC4=CCCC[C@@H]4[C@H]3CC[C@@]21C [lynestrenol] |  | weakly estrogenic | androgenic activity |  |
